Legend:
[1] = cited from earlier work
carrageenan paw edema = assay: Carrageenan paw edema model (Example 12, FIG. 3); format: in vivo; conditions: intraperitoneally administrated, rats n=4, 1% carrageenan into hind paw
Description: FIG. 3 is a graph illustrating the comparative anti-inflammatory activity of indomethacin and MEI in a carrageenan paw edema model (rats, n=4) as described in Example 12.
FIG. 3 represents the anti-inflammatory activity of MEI in a carrageenan model. Inflammation in rats (n=4) was caused by injection of 100 microliters of sterile 1% carrageenan solution into a hind paw, originating local edema development with maximum development at 3-4 hours after administration. The contaralateral paw was injected with 100 microliters of saline and used as control. Paw volumes were measured by plethysmometry, (Ugo Basil Plethysmometer, Italy) and the calculated difference in paw volumes indicated the severity of inflammation.

eye = assay: Comparison of ocular irritation levels, one drop onto the eye of volunteers (Example 10); format: in vivo, healthy volunteers; conditions: ophthalmic formulation comprising MEI, volunteers n=3
Description: The ocular irritation of MEI in an ophthalmic formulation as compared with an indomethacin-containing ophthalmic preparation has been tested in 3 healthy volunteers. One drop (40-50 mcl) of the tested formulations (0.25% of MEI (as per Example 5-9), 0.1% Indocollyre®, and sterile saline as the control) was placed onto the eye of each volunteer using an appropriate dropper. The interval between sample applications was at least 24 hours The comparative irritation for MEI, indomethacin and other NSAIDs (Indocollyre®) in ophthalmic formulations is set out in Table 4 (volunteers data, n=3): The irritation scale in the above table ranges from 0-10, with 0 corresponding to no burning or itching, and 10 corresponding to extremely severe burning or itching.

[2] = Solubility of the substance in water and solvents; format: physicochemical
Description: MEI is a slightly yellow crystalline substance with a melting point of 86-90° C. […] The NMR, mass-spectrometry and FT-IR-spectrum results were: […]

[3] = Pharmacokinetics of MEI in rats after intraperitoneal administration (Example 11, FIG. 2); format: in vivo; conditions: 20 mg/kg intraperitoneally, submicron emulsion (Example 6), Wistar rats
Description: FIG. 2 is a graph illustrating the pharmacokinetics of MEI in Wistar rats after intraperitoneal IP) administration (20 mg/kg, Example 6) as described in Example 11.

Row | SMILES | pH above which the substance is unstable [1] | Anti-inflammatory activity (difference in paw volumes) (carrageenan paw edema) | Irritation compared with indomethacin in solution (eye) | Solubility in alcohol, methylene chloride and chlorophorm, ethyl acetate, glycerides and other organic solvents ([2]; organic solvents) | Solubility in propylene glycol and polyethylene glycol (PEG)-400 ([2]; propylene glycol, PEG-400) | Solubility in water ([2]; water) | Level of the parent substance (MEI itself) [3] | Metabolism of MEI and release of indomethacin [3]
1 | COc1ccc2c(c1)c(CC(=O)O)c(C)n2C(=O)c1ccc(Cl)cc1 [Indomethacin, 1-(4-Chlorobenzoyl)-5-Methoxy-2-methyl-1H-indole-3-acetic acid] | greater than 6.0 |  |  |  |  |  |  | 
2 | COc1ccc2c(c1)c(CC(=O)OC1CC(C)CCC1C(C)C)c(C)n2C(=O)c1ccc(Cl)cc1 (centres unmarked) [MEI, Menthyl ester of indomethacin] |  | high level of anti-inflammatory activity | significantly lower irritation than indomethacin in solution | freely soluble | poorly soluble | insoluble | decreases rapidly | rapidly metabolizes and releases indomethacin for a prolonged period

— patent US8097646B2, “Ophthalmic preparation containing menthyl ester of indomethacin” (AlphaRx, Inc., priority 2005, dated 2012)
